Laboratory results from PubChem BioAssay AID220 (DTP/NCI, 2004).
Values joined by “and” are separate entries in the source; they are usually repeats but may differ in a detail not shown here. Equal values may be shown once. Results filed as inconclusive are left out.

System: CD8F1 mice, subcutaneous mammary adenocarcinoma, T/C%
Test: NCI In Vivo Anticancer Drug Screen. Data for tumor model Mammary Adenocarcinoma CD8F1 (subcutaneous) in CD8F1
Conditions: higher = larger tumour
How it was run: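 Tumor-bearing mice, transplantable model; readout survival or tumor size; value = treated (T) / vehicle control (C).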

[1] = endpoint: median tumor weight change, dose: 125.0 mg/kg/injection, schedule: Q01DX001 (ip), vehicle: saline with Tween-80
[2] = endpoint: median tumor weight change, dose: 250.0 mg/kg/injection, schedule: Q01DX001 (ip), vehicle: saline with Tween-80
[3] = endpoint: median tumor weight change, dose: 500.0 mg/kg/injection, schedule: Q01DX001 (ip), vehicle: saline with Tween-80
[4] = endpoint: median tumor weight change, dose: 2000.0 mg/kg/injection, schedule: Q01DX001 (ip), vehicle: saline with Tween-80
[5] = endpoint: median tumor weight (est.), dose: 12.5 mg/kg/injection, schedule: Q07DX005 (ip), vehicle: saline with Tween-80
[6] = endpoint: median tumor weight (est.), dose: 50.0 mg/kg/injection, schedule: Q07DX005 (ip), vehicle: saline with Tween-80
[7] = endpoint: median tumor weight (est.), dose: 100.0 mg/kg/injection, schedule: Q07DX005 (ip), vehicle: saline with Tween-80
[8] = endpoint: median tumor weight (est.), dose: 200.0 mg/kg/injection, schedule: Q07DX005 (ip), vehicle: saline with Tween-80
[9] = endpoint: median tumor weight (est.), dose: 400.0 mg/kg/injection, schedule: Q07DX005 (ip), vehicle: saline with Tween-80

## COC1C(O)CC(OC2CC(OC3CC(O[C@@H]4C(=O)c5c(cc6cc(OC7CC(OC8CC(O)C(O)C(C)O8)C(O)C(C)O7)c(C)c(O)c6c5O)C[C@H]4[C@H](OC)C(=O)[C@@H](O)[C@@H](C)O)OC(C)C3O)OC(C)C2O)OC1C (some centres undefined)
endpoint: median tumor weight (est.), dose: 0.18 mg/kg/injection, schedule: Q07DX005 (ip), vehicle: saline
  T/C: 88 % of control
endpoint: median tumor weight (est.), dose: 0.75 mg/kg/injection, schedule: Q07DX005 (ip), vehicle: saline
  T/C: 24 % of control and 42 % of control

## CC1CN1C(=O)NCCCCCCNC(=O)N1CC1C (centres undefined)
endpoint: median tumor weight (est.), dose: 5.0 mg/kg/injection, schedule: Q07DX005 (ip), vehicle: Klucel (hydroxypropylcellulose) (HPC)
  T/C: 75 % of control and 86 % of control
endpoint: median tumor weight (est.), dose: 10.0 mg/kg/injection, schedule: Q07DX005 (ip), vehicle: Klucel (hydroxypropylcellulose) (HPC)
  T/C: 40 % of control and 55 % of control
endpoint: median tumor weight (est.), dose: 20.0 mg/kg/injection, schedule: Q07DX005 (ip), vehicle: Klucel (hydroxypropylcellulose) (HPC)
  T/C: 6 % of control and 19 % of control

## CCCCOCN(COCCCC)C12CC3CC(CC(C3)C1)C2
endpoint: median tumor weight change, dose: 62.5 mg/kg/injection, schedule: Q01DX001 (ip), vehicle: saline with Tween-80
  T/C: 122 % of control
[1]
  T/C: 79 % of control
[2]
  T/C: 61 % of control

## S=c1nc[nH]c2nc[nH]c12
endpoint: mean tumor weight (est.), dose: 135.0 mg/kg/injection, schedule: Q07DX005 (ip), vehicle: sodium bicarbonate
  T/C: 42 % of control
endpoint: mean tumor weight, dose: 15.0 mg/kg/injection, schedule: Q01DX009 (ip), vehicle: saline
  T/C: 16 % of control
endpoint: mean tumor weight, dose: 30.0 mg/kg/injection, schedule: Q01DX009 (ip), vehicle: saline
  T/C: 5 % of control
endpoint: mean tumor weight, dose: 35.0 mg/kg/injection, schedule: Q07DX007 (ip), vehicle: saline
  T/C: 98 % of control
endpoint: mean tumor weight, dose: 60.0 mg/kg/injection, schedule: Q01DX009 (ip), vehicle: saline
  T/C: 14 % of control
endpoint: mean tumor weight, dose: 67.5 mg/kg/injection, schedule: Q07DX005 (ip), vehicle: saline
  T/C: 57 % of control
endpoint: mean tumor weight, dose: 67.5 mg/kg/injection, schedule: Q07DX006 (ip), vehicle: sodium bicarbonate
  T/C: 49 % of control
endpoint: mean tumor weight, dose: 67.5 mg/kg/injection, schedule: Q07DX007 (ip), vehicle: saline
  T/C: 81 % of control
endpoint: mean tumor weight, dose: 135.0 mg/kg/injection, schedule: Q07DX005 (ip), vehicle: saline
  T/C: 37 % of control
endpoint: median tumor weight (est.), dose: 4.0 mg/kg/injection, schedule: Q07DX005 (ip), vehicle: saline
  T/C: 73 % of control
endpoint: median tumor weight (est.), dose: 6.25 mg/kg/injection, schedule: Q07DX005 (ip), vehicle: Klucel (hydroxypropylcellulose) (HPC)
  T/C: 78 % of control
endpoint: median tumor weight (est.), dose: 8.0 mg/kg/injection, schedule: Q07DX005 (ip), vehicle: saline
  T/C: 78 % of control
endpoint: median tumor weight (est.), dose: 16.0 mg/kg/injection, schedule: Q07DX005 (ip), vehicle: saline
  T/C: 350 % of control
endpoint: median tumor weight (est.), dose: 25.0 mg/kg/injection, schedule: Q07DX005 (ip), vehicle: Klucel (hydroxypropylcellulose) (HPC)
  T/C: 80 % of control
endpoint: median tumor weight (est.), dose: 32.0 mg/kg/injection, schedule: Q07DX005 (ip), vehicle: saline
  T/C: 78 % of control
endpoint: median tumor weight (est.), dose: 50.0 mg/kg/injection, schedule: Q07DX005 (ip), vehicle: Klucel (hydroxypropylcellulose) (HPC)
  T/C: 48 % of control
endpoint: median tumor weight (est.), dose: 64.0 mg/kg/injection, schedule: Q07DX005 (ip), vehicle: saline
  T/C: 101 % of control
endpoint: median tumor weight (est.), dose: 100.0 mg/kg/injection, schedule: Q07DX005 (ip), vehicle: Klucel (hydroxypropylcellulose) (HPC)
  T/C: 17 % of control
endpoint: median tumor weight (est.), dose: 128.0 mg/kg/injection, schedule: Q07DX005 (ip), vehicle: saline
  T/C: 28 % of control

## Cc1ccc(S(=O)(=O)NC(=O)OC23COCN2COC3)cc1
endpoint: median tumor weight change, dose: 125.0 mg/kg/injection, schedule: Q01DX001 (ip), vehicle: water
  T/C: 170 % of control
[2]
  T/C: 111 % of control
[3]
  T/C: 90 % of control
endpoint: median tumor weight change, dose: 500.0 mg/kg/injection, schedule: Q01DX001 (ip), vehicle: water
  T/C: 162 % of control
endpoint: median tumor weight change, dose: 1000.0 mg/kg/injection, schedule: Q01DX001 (ip), vehicle: water
  T/C: 222 % of control
[4]
  T/C: 74 % of control
endpoint: median tumor weight change, dose: 2000.0 mg/kg/injection, schedule: Q01DX001 (ip), vehicle: water
  T/C: 184 % of control

## NC(N)=NOCC[C@@H](N)C(=O)O
endpoint: median tumor weight change, dose: 250.0 mg/kg/injection, schedule: Q01DX001 (ip), vehicle: saline
  T/C: 83 % of control
endpoint: median tumor weight change, dose: 500.0 mg/kg/injection, schedule: Q01DX001 (ip), vehicle: saline
  T/C: 72 % of control
endpoint: median tumor weight change, dose: 1000.0 mg/kg/injection, schedule: Q01DX001 (ip), vehicle: saline
  T/C: 75 % of control

## CC(=O)Nc1ccc(S(=O)(=O)CO)cc1
[5]
  T/C: 222 % of control and 77 % of control
endpoint: median tumor weight (est.), dose: 25.0 mg/kg/injection, schedule: Q07DX005 (ip), vehicle: saline with Tween-80
  T/C: 174 % of control and 409 % of control
[6]
  T/C: 189 % of control and 268 % of control
[7]
  T/C: 211 % of control and 271 % of control
[8]
  T/C: 186 % of control and 403 % of control
[9]
  T/C: 165 % of control and 281 % of control

## CC(O)CCC(=O)c1ccoc1 (centres undefined)
endpoint: median tumor weight change, dose: 3.32 mg/kg/injection, schedule: Q03HX003 (ip), vehicle: saline
  T/C: 89 % of control
endpoint: median tumor weight change, dose: 6.65 mg/kg/injection, schedule: Q03HX003 (ip), vehicle: saline
  T/C: 101 % of control

## NC(=S)N/N=C/c1ccc(O)cn1
endpoint: mean tumor weight, dose: 12.5 mg/kg/injection, schedule: Q07DX005 (ip), vehicle: saline with Tween-80
  T/C: 101 % of control
endpoint: mean tumor weight, dose: 25.0 mg/kg/injection, schedule: Q07DX005 (ip), vehicle: saline with Tween-80
  T/C: 75 % of control
endpoint: mean tumor weight, dose: 50.0 mg/kg/injection, schedule: Q07DX005 (ip), vehicle: saline with Tween-80
  T/C: 58 % of control
endpoint: mean tumor weight, dose: 100.0 mg/kg/injection, schedule: Q07DX005 (ip), vehicle: saline with Tween-80
  T/C: 49 % of control
endpoint: mean tumor weight, dose: 200.0 mg/kg/injection, schedule: Q07DX005 (ip), vehicle: saline with Tween-80
  T/C: 63 % of control
[5]
  T/C: 106 % of control
endpoint: median tumor weight (est.), dose: 25.0 mg/kg/injection, schedule: Q07DX005 (ip), vehicle: saline
  T/C: 59 % of control
[6]
  T/C: 85 % of control
endpoint: median tumor weight (est.), dose: 50.0 mg/kg/injection, schedule: Q07DX005 (ip), vehicle: saline
  T/C: 76 % of control
[7]
  T/C: 124 % of control
endpoint: median tumor weight (est.), dose: 100.0 mg/kg/injection, schedule: Q07DX005 (ip), vehicle: saline
  T/C: 105 % of control
[8]
  T/C: 60 % of control
endpoint: median tumor weight (est.), dose: 200.0 mg/kg/injection, schedule: Q07DX005 (ip), vehicle: saline
  T/C: 64 % of control
[9]
  T/C: 52 % of control
endpoint: median tumor weight (est.), dose: 400.0 mg/kg/injection, schedule: Q07DX005 (ip), vehicle: saline
  T/C: 44 % of control
endpoint: median tumor weight (est.), dose: 800.0 mg/kg/injection, schedule: Q07DX005 (ip), vehicle: saline
  T/C: 2 % of control

## O=C(c1cccnc1)c1cc(-c2ccccn2)c(=O)n2ccccc12
[1]
  T/C: 182 % of control
[2]
  T/C: 77 % of control
[3]
  T/C: 78 % of control
endpoint: median tumor weight change, dose: 1000.0 mg/kg/injection, schedule: Q01DX001 (ip), vehicle: saline with Tween-80
  T/C: 56 % of control
[4]
  T/C: 110 % of control

## c1ccc([P+](c2ccccc2)(c2ccccc2)c2ccccc2)cc1
endpoint: median tumor weight (est.), dose: 0.31 mg/kg/injection, schedule: Q07DX004 (ip), vehicle: saline
  T/C: 218 % of control and 86 % of control
endpoint: median tumor weight (est.), dose: 0.31 mg/kg/injection, schedule: Q07DX005 (ip), vehicle: saline
  T/C: 98 % of control
endpoint: median tumor weight (est.), dose: 0.62 mg/kg/injection, schedule: Q04DX005 (ip), vehicle: saline
  T/C: 50 % of control and 67 % of control
endpoint: median tumor weight (est.), dose: 0.62 mg/kg/injection, schedule: Q07DX005 (ip), vehicle: saline
  T/C: 121 % of control
endpoint: median tumor weight (est.), dose: 1.25 mg/kg/injection, schedule: Q04DX005 (ip), vehicle: saline
  T/C: 100 % of control
endpoint: median tumor weight (est.), dose: 1.25 mg/kg/injection, schedule: Q07DX004 (ip), vehicle: saline
  T/C: 124 % of control
endpoint: median tumor weight (est.), dose: 1.25 mg/kg/injection, schedule: Q07DX005 (ip), vehicle: saline
  T/C: 62 % of control
endpoint: median tumor weight (est.), dose: 2.5 mg/kg/injection, schedule: Q04DX005 (ip), vehicle: saline
  T/C: 73 % of control and 76 % of control
endpoint: median tumor weight (est.), dose: 2.5 mg/kg/injection, schedule: Q07DX005 (ip), vehicle: saline
  T/C: 63 % of control

## O=C(O)CC(=O)O.[NH-]CC[NH-].[Pt+2]
endpoint: median tumor weight (est.), dose: 14.06 mg/kg/injection, schedule: Q07DX005 (ip), vehicle: dextrose
  T/C: 14 % of control
endpoint: median tumor weight (est.), dose: 28.13 mg/kg/injection, schedule: Q07DX005 (ip), vehicle: dextrose
  T/C: 25 % of control
endpoint: median tumor weight (est.), dose: 56.25 mg/kg/injection, schedule: Q07DX005 (ip), vehicle: dextrose
  T/C: 14 % of control
endpoint: median tumor weight (est.), dose: 112.5 mg/kg/injection, schedule: Q07DX005 (ip), vehicle: dextrose
  T/C: 13 % of control
endpoint: median tumor weight (est.), dose: 225.0 mg/kg/injection, schedule: Q07DX005 (ip), vehicle: dextrose
  T/C: 3 % of control

## CC(=Nc1ccccc1)C1=C(O)C(Cc2ccccc2)NC1=O (centres undefined)
[5]
  T/C: 218 % of control and 100 % of control
[6]
  T/C: 89 % of control
[8]
  T/C: 211 % of control and 85 % of control
[9]
  T/C: 39 % of control and 62 % of control
